Each structure is given as a SMILES string.

The subject of one data set is HL-60. Description: Caspase cascade activation assay (Example 90). The data set is classed as cell-based, human. As to conditions: HL-60, 24 h incubation. As for the experimental part:
(§1) Human breast cancer cell lines T-47D and ZR-75-1, human prostate cancer cell line PC-3, human leukemia cancer cell line HL-60 and human non-transformed fibroblast cell line MRC-5 cells were grown according to media component mixtures designated by The American Type Culture Collection + 10% FCS (Life Technologies, Inc.), in a 5% CO2 -95% humidity incubator at 37° C. T-47D, ZR-75-1 and PC-3 cells were maintained at a cell density between 30 and 80% confluency and for HL-60 at a cell density of 0.1 to 0.6 x 10^6 cells/ml. Cells were harvested at 600xg and resuspended at 0.65 x 10^6 cells/ml into appropriate media + 10% FCS. […] The samples were mixed by agitation and incubated at room temperature.
(§2) The EC50 (nM) was determined by a sigmoidal dose-response calculation (Prism 2.0, GraphPad Software Inc.). Caspase Activity and Potency

The next data set relates to T-47D. Description: Caspase cascade activation assay (Example 90). The data set is classed as cell-based, human. To be noted: T-47D, 24 h incubation. As for the experimental part:
as §1, §2

The subject of a further data set is PC-3. Kind of data set: Caspase cascade activation assay (Example 90). The data set is classed as cell-based, human. To be noted: PC-3, 24 h incubation. As for the experimental part:
as §1, §2

The subject of another data set is MRC-5. Kind of data set: Caspase cascade activation assay (Example 90). The data set is classed as cell-based, human. To be noted: MRC-5 non-transformed fibroblasts, 24 h incubation. As for the experimental part: as §1, §2
A further data set concerns ZR-75-1. Kind of data set: Caspase cascade activation assay (Example 90). The data set is classed as cell-based, human. As to conditions: ZR-75-1, 24 h incubation. As for the experimental part: as §1, §2
A further data set deals with HEL cells. As to conditions: Asano et al. 1996; cited from earlier work.
[1] abbreviates: 0.16 to 10 µM final, net RFU ratio to control.
[2] abbreviates: Homo sapiens, caspase activation, read-out: EC50.

As usually defined, the EC50 is the concentration giving half of the maximal effect. `CC(C)=CCC[C@]1(C)C=Cc2c(O)c3c(c(CC=C(C)C)c2O1)O[C@]12C(=C[C@@H]4C[C@H]1C(C)(C)O[C@@]2(C/C=C(/C)C(=O)O)C4=O)C3=O` [Example 1, Gambogic Acid]: the “caspase activity (Ratio)” value in the data set with HL-60 (setting [1]) stood at 6.3; with T-47D (setting [1]) it was 13.6; in the data set with PC-3 (setting [1]) it was 2.1; in the data set with MRC-5 (setting [1]) it was 17.8; in the data set on ZR-75-1 (setting [1]), 11.9. In addition, the EC50 with HL-60 (setting [2]) is 400 nM; in the data set with T-47D (Homo sapiens, T47D, caspase activation, read-out: EC50), 560 nM; in the data set with PC-3 (setting [2]), 1500 nM; in the data set on MRC-5 (Homo sapiens, MRC5, caspase activation, read-out: EC50), 1410 nM; with ZR-75-1 (setting [2]), 1400 nM. Further, the cytotoxicity entry in the data set on HEL cells is “cytotoxic”.

(Values after patent EP1180991B1, “GAMBOGIC ACID DERIVATIVES AS ACTIVATORS OF CASPASES AND INDUCERS OF APOPTOSIS” (Cytovia, Inc., priority 1999, dated 2000).)
